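96-well plates; 48 h exposure; 5 concentrations. Endpoints by linear interpolation between flanking doses. Not reached: highest tested concentration assigned. Abbreviation: GI50, concentration required for 50% inhibition of growth.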 The source made the active and inactive calls. Rule as the data show it: active = GI50 up to about 1.1 µM and inactive = higher. A value given as a limit tells only on which side of the number the result lay.

What all share (assay): NCI tumour cell line growth inhibition, 48 h
Assay [1] has as its system T47D.
Assay [2] concerns DMS-273.
The test system of assay [3] is DLD-1.
Assay [4] deals with XF498.
Assay [5] deals with KM-20L2.
Assay [6] concerns M19-MEL.
Assay [7] deals with LXFL 529.
Assay [8] relates to DMS-114.
Assay [9] relates to RXF 631.

In the case of `COc1ccc(/C=C\c2cc(OC)c(OC)c(OC)c2)cc1OC(=O)CC(N)C(=O)O` (stereo unspecified), the GI50 in assay [1] is < 0.01 µM (active); in assay [2], 0.00195 µM (active); in assay [3] it was 0.0041 µM (active); in assay [4], 0.00239 µM (active); in assay [5], 3.7 µM (inactive); in assay [6] it was 0.00135 µM (active). Moreover, the GI50 in [7] was 0.00191 µM (active); in assay [8], 0.00122 µM (active).
With `CCOC(=O)C1Cc2c(ccc(OC)c2OC)C(=O)C1N` (stereo unspecified), the GI50 in assay [2], in [3], in [4], in assay [9], in assay [5] and in assay [6] was > 100 µM (inactive) in each case. Further, the GI50 is 94.8 µM (inactive) in assay [7] and > 100 µM (inactive) in [8].
Turning to `CCCCCCCCCCCCCCC1OC(=O)c2ccccc21` (stereo unspecified), the GI50 is 71.4 µM (inactive) in assay [3]; > 100 µM (inactive) in [9]; 42.9 µM (inactive) in [5]; 85.7 µM (inactive) in [6]; 77.1 µM (inactive) in [7]; 24 µM (inactive) in assay [8].
As to `Cc1cc(Cl)ccc1N1C(=O)C(=O)C(c2nc3ccccc3s2)C(=O)C1=O`, the GI50 in [2], in [3], in [4], in assay [9], in assay [5] and in assay [7] was > 100 µM (inactive) each time. For the same compound, the GI50 in assay [8] was > 100 µM (inactive).
Regarding `CCc1ccccc1NC(=O)C(=O)C1C(=O)N(c2ccccc2)N=C1N` (stereo unspecified), the GI50 in assay [2], in assay [3], in assay [4], in [9], in assay [5] and in assay [6] was > 100 µM (inactive) in each case. The GI50 in assay [7] and in assay [8] was > 100 µM (inactive) each time.
With `CC(CNCCCNCCNCCCNCO)[N+](=O)[O-]` (stereo unspecified), the GI50 in assay [2] was 16.5 µM (inactive); in [3], 3.63 µM (inactive); in assay [4], 16.1 µM (inactive); in [9], 16 µM (inactive); in assay [5], 16.9 µM (inactive); in [7], 3.99 µM (inactive). Further, the GI50 in assay [8] was 16.6 µM (inactive).
Take `Clc1ccc(SC(/C=C/NNC2=NN=C(c3ccccc3)C(c3ccccc3)N2)c2ccccc2)cc1` (stereo unspecified): the GI50 was 26.2 µM (inactive) in assay [2]; 23.4 µM (inactive) in assay [3]; 18.7 µM (inactive) in assay [4]; 25 µM (inactive) in [9]; 19.9 µM (inactive) in [5]; 36.5 µM (inactive) in [6]. Further, in assay [8], the GI50 is 18.5 µM (inactive).
`CC(=O)n1c2c(c(=O)n1-c1ccccc1)[S+]([O-])CCC2` (stereo unspecified): the GI50 in assay [2] was 23.2 µM (inactive); in [3], 48 µM (inactive); in assay [4], > 76.7 µM (inactive); in [9], 97.1 µM (inactive); in assay [5], > 71.6 µM (inactive); in [6], 29.6 µM (inactive). Besides, the GI50 in [7] was 28.7 µM (inactive); in [8] it was 35.9 µM (inactive).
Turning to `Cc1cc2c(cc1C)[n+]([O-])c(C(=O)/C=C/c1ccccc1[N+](=O)[O-])c(C)[n+]2[O-]`, the GI50 in assay [1] was > 77.3 µM (inactive); in assay [2], 34.1 µM (inactive); in assay [3], 77.6 µM (inactive); in assay [4] it was 22.3 µM (inactive); in [5] it was > 100 µM (inactive); in [6], > 80 µM (inactive). Further, the GI50 in assay [7] is > 91.6 µM (inactive); in [8], 17.8 µM (inactive).
On to `Nc1ncnc2c(C3OC(CO)C(O)C3O)c[nH]c12` (stereo unspecified), for which the GI50 is 0.00405 µM (active) in assay [1]; 0.01 µM (active) in assay [2]; 0.000728 µM (active) in [3]; 0.00881 µM (active) in assay [4]; 0.00776 µM (active) in assay [9]; 0.00276 µM (active) in assay [5]. The GI50 was 0.0139 µM (active) in assay [6], 0.00482 µM (active) in [7] and 0.00421 µM (active) in [8].
As to `C=C1C(=O)C23[C@H](O)C1CC[C@H]2[C@]12COC3(O)[C@@H](O)[C@@H]1C(C)(C)CC[C@@H]2O`, the GI50 is 13.6 µM (inactive) in [2]; 11.3 µM (inactive) in assay [3]; 3.46 µM (inactive) in assay [4]; 10.1 µM (inactive) in [9]; 13.7 µM (inactive) in assay [5]; 12.9 µM (inactive) in assay [6]. The figures for the GI50 in assay [7] and in [8] were 1.27 µM (inactive) and 7.38 µM (inactive), respectively.
Consider `CC1=C(C)CC2(SC1)C(=O)c1ccccc1C2=O`, for which the GI50 in [2], in [3], in [9], in assay [5], in [6] and in assay [7] was > 100 µM (inactive) throughout. Moreover, the GI50 in [8] was > 100 µM (inactive).
For `CC(=O)CN(Cc1cc(C)c2c(c1)c1ccccc1n2Cc1ccccc1)S(=O)(=O)c1ccc(C)cc1`, the GI50 in [2], in assay [3], in assay [4], in assay [9], in assay [6] and in assay [7] was > 100 µM (inactive) each time. Also, the GI50 in assay [8] was > 100 µM (inactive).
`COc1cc(-c2cc(CCC(=O)Nc3ccccc3[N+](=O)[O-])n(-c3ccc([N+](=O)[O-])cc3[N+](=O)[O-])n2)ccc1O`: the GI50 in assay [2] was > 10 µM (inactive); in [3], > 10 µM (inactive); in assay [4], > 100 µM (inactive); in [9], > 10 µM (inactive); in [5] it was > 10 µM (inactive); in assay [6], > 10 µM (inactive). Further, the results for the GI50 in [7] and in assay [8] were 44.7 µM (inactive) and > 10 µM (inactive), respectively.

The values are drawn from ChEMBL document CHEMBL1201862, “PubChem BioAssay data set” (2004).
